Measured values as given in US10202390B2, “Heteroaryl substituted aminopyridine compounds” (BRISTOL-MYERS SQUIBB COMPANY, priority 2015, dated 2019).

What was measured:
[1] = Caco-2 Permeability Assay; format: in vitro ADME; settings: human, test compound 3 μM, 2 hours at 37° C., direction not given
Method: Caco-2 Permeability Assay Protocol
Thirteen to 27 days prior to assay, Caco-2 cells were seeded onto collagen-coated polycarbonate filter membranes in 24-well transwell plates at a density of 1.45×10^5 cells/cm^2, approximately 4.8×10^4 cells per well. The cells were grown in a culture medium consisting of DMEM supplemented with 10% fetal bovine serum, 10 mM HEPES, 1% nonessential amino acids, 2 mM L-glutamine, 100 U/mL penicillin-G, and 100 μg/mL streptomycin. The culture medium was replaced every 3 days and the cells were maintained at 37° C. in a 95% relative humidity and 5% CO2 atmosphere. The cells were evaluated for tight junction formation just prior to assay. The test compound was solubilized to 10 mM in 100% DMSO and diluted to 3 μM in assay buffer. Permeability studies were initiated by adding 200 μL assay buffer plus/minus compound to the apical transwell compartment and 600 μL assay buffer plus/minus compound to the basolateral compartment of the 24-well transwell low-binding cluster plate. For apical-to-basolateral (A to B) permeability (absorptive direction), buffer containing compound was placed in the apical compartment (donorwells), while buffer alone was placed in the corresponding basolateral compartments (receiverwells). For basolateral-to-apical (B to A) permeability (secretive direction), buffer containing compound was placed in the basolateral compartment (donor wells), while buffer alone was placed in the corresponding apical compartments (receiver wells). Transwells were then incubated for 2 hours at 37° C. in a 95% relative humidity and 5% CO2 atmosphere with gentle agitation. Following incubation, 100 μL was removed from each apical and basolateral compartment and transferred to 96-well low binding plates that had been previously loaded with 100 μL/well of acetonitrile containing 250 nM propranolol, 250 nM diclofenac, and 500 nM tolbutamide as internal standards. The samples were subsequently analyzed by LC-MS/MS to determine concentrations of compound.

IRAK4 = IRAK4 (Homo sapiens (Human), UniProt Q9NWZ3); assay: IRAK4 Inhibition Assay; format: biochemical; settings: ATP 500 μM; IRAK4 0.6 nM; 60 min room temperature
Sequence of IRAK4 (Q9NWZ3 whole entry): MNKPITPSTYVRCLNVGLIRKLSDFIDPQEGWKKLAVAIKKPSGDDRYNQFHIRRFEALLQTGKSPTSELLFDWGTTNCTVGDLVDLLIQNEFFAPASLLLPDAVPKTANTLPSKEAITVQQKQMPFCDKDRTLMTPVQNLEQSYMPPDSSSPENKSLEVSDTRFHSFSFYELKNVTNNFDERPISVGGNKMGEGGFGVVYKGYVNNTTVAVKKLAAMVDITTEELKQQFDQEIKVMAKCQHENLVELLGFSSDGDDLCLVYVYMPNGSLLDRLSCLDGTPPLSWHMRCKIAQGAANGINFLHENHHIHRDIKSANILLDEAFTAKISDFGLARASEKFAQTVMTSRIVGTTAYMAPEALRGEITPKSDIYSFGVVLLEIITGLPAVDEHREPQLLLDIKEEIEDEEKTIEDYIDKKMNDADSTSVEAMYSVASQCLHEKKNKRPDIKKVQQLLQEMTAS
Method: The assays were performed in U-bottom 384-well plates. The final assay volume was 30 μL prepared from 15 μL additions of enzyme and substrates (fluoresceinated peptide and ATP) and test compounds in assay buffer (20 mM HEPES pH 7.2, 10 mM MgCl2, 0.015% Brij 35 and 4 mM DTT). The reaction was initiated by the combination of IRAK4 with substrates and test compounds. The reaction mixture was incubated at room temperature for 60 min. and terminated by adding 45 μL of 35 mM EDTA to each sample. The reaction mixture was analyzed on the Caliper LABCHIP® 3000 (Caliper, Hopkinton, Mass.) by electrophoretic separation of the fluorescent substrate and phosphorylated product. Inhibition data were calculated by comparison to no enzyme control reactions for 100% inhibition and vehicle-only reactions for 0% inhibition. The final concentrations of reagents in the assays are ATP, 500 μM; FL-IPTSPITTTYFFFKKK peptide 1.5 μM; IRAK4, 0.6 nM; and DMSO, 1.6%.

Human whole blood = assay: IRAK4 Whole Blood Assay (TLR2 agonist lipoteichoic acid induced IL-6); format: cell-based; settings: 10 μg/mL lipoteichoic acid (TLR2 agonist), 5 hours, IL-6 levels
Method: Human whole blood containing the anti-coagulant ACD-A was plated in 384-well plate (25 μL/well) and incubated with compounds for 60 minutes at 37° C. in a 5% CO2 incubator. The blood was stimulated with a TLR2 agonist, 10 μg/mL final concentration of lipoteichoic acid (Invivogen, San Diego, Calif.) in 25 μL RPMI (Gibco) for 5 hours in a 5% CO2 incubator. At the end of the incubation, plates were centrifuged at 2300 rpm for 5 minutes. Supernatants were harvested and analyzed for IL-6 levels by Flow Cytometry beads assay (BD Biosciences, San Jose, Calif.).

SMILES	Papp at 2 h, 3 μM [1] [×10⁻⁶ cm/s]	IC50 (IRAK4) [nM]	EC50 (Human whole blood) [nM]
CCCn1cc(-c2cnc(-c3cnc4cc(C#N)cnn34)cc2NC2CC2)nn1 [Example 18, 3-(4-(cyclopropylamino)-5-(1-propyl-1H-1,2,3-triazol-4-yl)pyridin-2-yl)imidazo[1,2-b]pyridazine-7-carbonitrile]	22.5	2	180
CC(C)Nc1cc(-c2cnc3cc(C#N)cnn23)ncc1-n1cc(CCC(C)(C)O)nn1 [Example 22, 3-(5-(4-(3-hydroxy-3-methylbutyl)-1H-1,2,3-triazol-1-yl)-4-(isopropylamino)pyridin-2-yl)imidazo[1,2-b]pyridazine-7-carbonitrile]	29.5	4	780
CC(C)Nc1cc(-c2cnc3cc(C#N)cnn23)ncc1-c1cnn(CCC(C)(C)O)c1 [Example 27, 3-(5-(1-(3-hydroxy-3-methylbutyl)-1H-pyrazol-4-yl)-4-(isopropylamino)pyridin-2-yl) imidazo[1,2-b]pyridazine-7-carbonitrile]	13.6	3	620

Other lines, results leading:

Papp at 2 h, 3 μM [1] [×10⁻⁶ cm/s]	IC50 (IRAK4) [nM]	EC50 (Human whole blood) [nM]	SMILES
17.9	8		CCCc1cn(-c2cnc(-c3cnn4cc(Cl)cnc34)cc2NC(C)C)nn1 [Example 11, 2-(6-chloropyrazolo[1,5-a]pyrimidin-3-yl)-N-isopropyl-5-(4-propyl-1H-1,2,3-triazol-1-yl)pyridin-4-amine]
34.7	9		CCCc1cn(-c2cnc(-c3cnn4cc(C#N)cnc34)cc2NC(C)C)nn1 [Example 12, 3-(4-(isopropylamino)-5-(4-propyl-1H-1,2,3-triazol-1-yl)pyridin-2-yl)pyrazolo[1,5-a]pyrimidine-6-carbonitrile]
22.5	6	1780	CCCc1cn(-c2cnc(-c3cnc4cc(C#N)cnn34)cc2NC(C)C)nn1 [Example 15, 3-(4-(isopropylamino)-5-(4-propyl-1H-1,2,3-triazol-1-yl)pyridin-2-yl)imidazo[1,2-b]pyridazine-7-carbonitrile]
13.4	5	250	CC(C)(O)CCc1cn(-c2cnc(-c3cnn4cc(C#N)cnc34)cc2N[C@H]2CC[C@H](F)C2)nn1 [Example 25, 3-(4-(((1S,3 S)-3-fluorocyclopentyl)amino)-5-(4-(3-hydroxy-3-methylbutyl)-1H-1,2,3-triazol-1-yl)pyridin-2-yl)pyrazolo[1,5-a]pyrimidine-6-carbonitrile]
